# Target: T1, human p38 kinase alpha (Homo sapiens, UniProt Q16539)
# T1 construct: GST (N, cleaved yes); made in house; host or cells: E. coli DH10B
# Assay: p38 kinase in vitro assay, phosphorylation of biotinylated PHAS-I with 32P-ATP
# Type: biochemical
# Conditions: @ 1.0 uM
# T1 sequence (Q16539 whole entry): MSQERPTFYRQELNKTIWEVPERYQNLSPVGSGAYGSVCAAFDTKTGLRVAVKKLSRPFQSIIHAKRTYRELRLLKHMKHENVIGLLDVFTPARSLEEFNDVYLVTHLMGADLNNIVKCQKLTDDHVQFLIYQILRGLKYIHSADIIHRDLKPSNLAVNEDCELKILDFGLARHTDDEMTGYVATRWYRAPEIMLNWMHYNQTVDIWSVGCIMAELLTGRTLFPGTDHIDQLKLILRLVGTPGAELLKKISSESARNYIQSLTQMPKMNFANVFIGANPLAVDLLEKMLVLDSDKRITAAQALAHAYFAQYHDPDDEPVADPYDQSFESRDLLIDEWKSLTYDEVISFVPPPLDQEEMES
P38 alpha kinase % inhib @ conc.,P38 alpha kinase % inhib @ conc. (uM),SMILES
71.0% @,,COc1ccc(S(=O)(=O)NCCCc2[nH]nc(-c3ccc(F)cc3)c2-c2ccncc2)cc1 [Example B-1202]
83.0% @,,COc1ccc(NC(=O)NCCCc2[nH]nc(-c3ccc(F)cc3)c2-c2ccncc2)c(OC)c1 [Example B-1227]
86.0% @,,O=C(NCCCc1[nH]nc(-c2ccc(F)cc2)c1-c1ccncc1)N1CCCC1 [Example B-1209]
,72.0% 2,Cc1ccc(S(=O)(=O)NC(Cc2ccccc2)C(=O)NCCc2[nH]nc(-c3ccc(F)cc3)c2-c2ccncc2)cc1 (stereo not drawn) [Example B-1011]
,80.0% @,O=C(NCCCc1[nH]nc(-c2ccc(F)cc2)c1-c1ccncc1)c1ccno1 [Example B-1169]
,78.0% @,CCCOC(=O)NCCc1[nH]nc(-c2ccc(F)cc2)c1-c1ccncc1 [Example B-1053]
,58.0% @,O=C(NCCc1[nH]nc(-c2ccc(F)cc2)c1-c1ccncc1)c1cccnc1 [Example B-1005]
,74.0% @,O=S(=O)(NCCCc1[nH]nc(-c2ccc(F)cc2)c1-c1ccncc1)c1ccccc1 [Example B-1191]
,54.0% @,O=C(NCCc1[nH]nc(-c2ccc(F)cc2)c1-c1ccncc1)c1ccccc1C(F)(F)F [Example B-0996]
,88.0% @,O=S(=O)(NCCc1[nH]nc(-c2ccc(F)cc2)c1-c1ccncc1)c1ccc(F)cc1F [Example B-1018]
82.0% @,,COc1ccc(NC(=O)NCCCc2[nH]nc(-c3ccc(F)cc3)c2-c2ccncc2)cc1 [Example B-1224]
,77.0% @,CC(C)S(=O)(=O)NCCc1[nH]nc(-c2ccc(F)cc2)c1-c1ccncc1 [Example B-1015]
,61.0% @,COc1ccc(S(=O)(=O)NCCc2[nH]nc(-c3ccc(F)cc3)c2-c2ccncc2)cc1 [Example B-1025]
,76.0% @,NC(=O)NCCc1[nH]nc(-c2ccc(F)cc2)c1-c1ccncc1 [Example B-1030]

# Same assay, conditions: @ 1.0 uM; read-out: P38 alpha kinase % inhib @ conc.
row,inhibition at 1 µM,SMILES
1,93%,COc1cccc(CC(=O)NCc2[nH]nc(-c3ccc(F)cc3)c2-c2ccncc2)c1 [Example B-0040]

# Same assay, conditions: @ 10.0 uM
"P38 alpha kinase IC50, uM or % inhib @ conc. (uM): % inhib",P38 alpha kinase % inhib @ conc.,SMILES
92.0% @,,Cc1c(-c2ccncc2)c(-c2ccc(F)cc2)nn1CC(=O)Nc1ccccc1Cc1ccccc1 [Example B-2434]
79.0% @,,Cc1c(-c2ccncc2)c(-c2ccc(F)cc2)nn1CC(=O)Nc1cc(C(F)(F)F)cc(C(F)(F)F)c1 [Example B-2425]
81.0% @,,Cc1c(-c2ccncc2)c(-c2ccc(F)cc2)nn1CC(=O)Nc1ccc(C(F)(F)F)cc1 [Example B-2439]
82.0% @,,Cc1c(-c2ccncc2)c(-c2ccc(F)cc2)nn1CC(=O)Nc1ccc(OCc2ccccc2)cc1 [Example B-2437]
,75.0% @,COC(=O)C(Cc1ccc([N+](=O)[O-])cc1)NC(=O)Cn1nc(-c2ccc(F)cc2)c(-c2ccncc2)c1C (stereo not drawn) [Example B-2349]
84.0% @,,Cc1ccc(C)c(C(=O)c2ccccc2NC(=O)Cn2nc(-c3ccc(F)cc3)c(-c3ccncc3)c2C)c1 [Example B-2443]
,81.0% @,Cc1c(-c2ccncc2)c(-c2ccc(F)cc2)nn1CC(=O)NC1CCC1 [Example B-2330]
75.0% @,,Cc1c(-c2ccncc2)c(-c2ccc(F)cc2)nn1CC(=O)Nc1cc(F)cc(F)c1 [Example B-2438]

# Same assay, conditions: in vitro P38-alpha kinase inhibition; read-out: P38 alpha kinase IC50
row,IC50,SMILES
1,1.25 µM,COc1cccc(CC(=O)NC(Cc2ccccc2)c2[nH]nc(-c3ccc(F)cc3)c2-c2ccncc2)c1 (stereo not drawn) [Example B-0849]
2,32 µM,Cc1cccc(C)c1NC(=O)NC(Cc1ccccc1)c1[nH]nc(-c2ccc(F)cc2)c1-c1ccncc1 (stereo not drawn) [Example B-0733]
3,< 0.1 µM,C[C@@H](NS(=O)(=O)c1cccc(Cl)c1)c1[nH]nc(-c2ccc(F)cc2)c1-c1ccncc1 [Example B-0462]
4,0.36 µM,CC(NS(=O)(=O)c1cccc2c(N(C)C)cccc12)c1[nH]nc(-c2ccc(F)cc2)c1-c1ccncc1 (stereo not drawn) [Example B-0621]
5,0.013 µM,O=S(=O)(NCCc1[nH]nc(-c2ccc(F)cc2)c1-c1ccncc1)c1ccc(F)c(Cl)c1 [Example B-1094]
6,< 0.1 µM,O=[N+]([O-])c1ccccc1CS(=O)(=O)NCCc1[nH]nc(-c2ccc(F)cc2)c1-c1ccncc1 [Example B-1070]
7,0.12 µM,CC(NC(=O)c1ccccc1Br)c1[nH]nc(-c2ccc(F)cc2)c1-c1ccncc1 (stereo not drawn) [Example B-0703]
8,0.87 µM,CN(C)C(=O)NC(Cc1ccccc1)c1[nH]nc(-c2ccc(F)cc2)c1-c1ccncc1 (stereo not drawn) [Example B-0729]
9,4.1 µM,CC(NC(=O)NC(Cc1ccccc1)c1[nH]nc(-c2ccc(F)cc2)c1-c1ccncc1)c1ccccc1 (stereo not drawn) [Example B-0739]
10,1.31 µM,CCCCOc1ccc(S(=O)(=O)NC(C)c2[nH]nc(-c3ccc(F)cc3)c2-c2ccncc2)cc1 (stereo not drawn) [Example B-0456]
11,0.33 µM,O=S(=O)(NC(Cc1ccccc1)c1[nH]nc(-c2ccc(F)cc2)c1-c1ccncc1)c1ccc(F)cc1 (stereo not drawn) [Example B-0752]
12,1.13 µM,CC(NC(=O)C1CC1)c1[nH]nc(-c2ccc(F)cc2)c1-c1ccncc1 (stereo not drawn) [Example B-0538]
13,< 0.1 µM,O=S(=O)(NCCc1[nH]nc(-c2ccc(F)cc2)c1-c1ccncc1)c1cc(Cl)ccc1Cl [Example B-1066]
14,3.8 µM,Cc1ccc(S(=O)(=O)NC(Cc2ccccc2)c2[nH]nc(-c3ccc(F)cc3)c2-c2ccncc2)cc1 (stereo not drawn) [Example B-0721]
15,1.81 µM,Cc1ccc(C(=O)NC(Cc2ccccc2)c2[nH]nc(-c3ccc(F)cc3)c2-c2ccncc2)cc1 (stereo not drawn) [Example B-0850]
16,1.71 µM,C=CCNC(=O)NC(C)c1[nH]nc(-c2ccc(F)cc2)c1-c1ccncc1 (stereo not drawn) [Example B-0589]
17,0.47 µM,O=C(NCCc1[nH]nc(-c2ccc(F)cc2)c1-c1ccncc1)c1ccccc1F [Example B-1150]
18,1.2 µM,CCOC(=O)NC(Cc1ccccc1)c1[nH]nc(-c2ccc(F)cc2)c1-c1ccncc1 (stereo not drawn) [Example B-0748]
19,0.17 µM,CC(C)OC(=O)NC(C)c1[nH]nc(-c2ccc(F)cc2)c1-c1ccncc1 (stereo not drawn) [Example B-0606]
20,1.68 µM,CCN(CC)C(=O)NC(C)c1[nH]nc(-c2ccc(F)cc2)c1-c1ccncc1 (stereo not drawn) [Example B-0597]
21,1 µM,CCCNC(=O)NC(Cc1ccccc1)c1[nH]nc(-c2ccc(F)cc2)c1-c1ccncc1 (stereo not drawn) [Example B-0735]
22,1.2 µM,CCNC(=O)NC(Cc1ccccc1)c1[nH]nc(-c2ccc(F)cc2)c1-c1ccncc1 (stereo not drawn) [Example B-0743]
23,0.26 µM,O=S(=O)(NCCc1[nH]nc(-c2ccc(F)cc2)c1-c1ccncc1)c1cccc(C(F)(F)F)c1 [Example B-1099]
24,0.56 µM,CC(C)c1cc(C(C)C)c(C(=O)NCCc2[nH]nc(-c3ccc(F)cc3)c2-c2ccncc2)c(C(C)C)c1 [Example B-1125]
25,0.37 µM,CC(NS(=O)(=O)c1cccc2ccccc12)c1[nH]nc(-c2ccc(F)cc2)c1-c1ccncc1 (stereo not drawn) [Example B-0618]
26,0.47 µM,CC(NS(=O)(=O)c1ccc(S(=O)(=O)c2ccccc2)s1)c1[nH]nc(-c2ccc(F)cc2)c1-c1ccncc1 (stereo not drawn) [Example B-0665]
27,0.35 µM,Cc1ccc(S(C)(=O)=O)cc1S(=O)(=O)NCCc1[nH]nc(-c2ccc(F)cc2)c1-c1ccncc1 [Example B-1119]
28,0.15 µM,CC(NS(=O)(=O)c1ccccc1F)c1[nH]nc(-c2ccc(F)cc2)c1-c1ccncc1 (stereo not drawn) [Example B-0569]
29,1.22 µM,CC(NC(=O)NCCc1ccccc1)c1[nH]nc(-c2ccc(F)cc2)c1-c1ccncc1 (stereo not drawn) [Example B-0593]

# Same assay, conditions: in vitro P38-alpha kinase; read-out: P38 alpha kinase IC50
row,IC50,SMILES
1,2.88 µM,O=S(=O)(c1c(Cl)cccc1Cl)N1CCC(c2[nH]nc(-c3ccc(F)cc3)c2-c2ccncc2)CC1 [Example B-1451]
2,12.9 µM,N#Cc1ccccc1S(=O)(=O)NCCCc1[nH]nc(-c2ccc(F)cc2)c1-c1ccncc1 [Example B-1255]
3,0.097 µM,O=C(c1ccc(F)cc1F)N1CCC(c2[nH]nc(-c3ccc(F)cc3)c2-c2ccncc2)CC1 [Example B-1412]
4,0.27 µM,O=C(c1ccc(F)c(C(F)(F)F)c1)N1CCC(c2[nH]nc(-c3ccc(F)cc3)c2-c2ccncc2)CC1 [Example B-1408]
5,0.062 µM,O=C(NCCCc1[nH]nc(-c2ccc(F)cc2)c1-c1ccncc1)c1ccc(F)cc1F [Example B-1353]
6,0.47 µM,O=S(=O)(NCCCc1[nH]nc(-c2ccc(F)cc2)c1-c1ccncc1)c1ccc(Cl)c(Cl)c1 [Example B-1270]
7,0.021 µM,O=C(NCCCc1[nH]nc(-c2ccc(F)cc2)c1-c1ccncc1)c1cccc(F)c1F [Example B-1347]
8,0.93 µM,Cc1c(-c2ccncc2)c(-c2ccc(F)cc2)nn1CC(=O)NCCc1ccc(F)cc1 [Example B-2271]
9,0.007 µM,O=C(NCCCc1[nH]nc(-c2ccc(F)cc2)c1-c1ccncc1)c1c(F)ccc(F)c1F [Example B-1332]
10,0.15 µM,O=S(=O)(NCCCc1[nH]nc(-c2ccc(F)cc2)c1-c1ccncc1)c1ccc(Cl)cc1Cl [Example B-1253]
11,0.004 µM,O=C(NCCCc1[nH]nc(-c2ccc(F)cc2)c1-c1ccncc1)c1cc(F)cc(F)c1 [Example B-1331]
12,0.6 µM,O=C(c1c(F)cccc1C(F)(F)F)N1CCC(c2[nH]nc(-c3ccc(F)cc3)c2-c2ccncc2)CC1 [Example B-1404]
13,0.15 µM,O=S(=O)(NCCCc1[nH]nc(-c2ccc(F)cc2)c1-c1ccncc1)c1ccc(-c2ccccc2)cc1 [Example B-1286]
14,0.024 µM,Cc1ccccc1C(=O)N1CCC(c2[nH]nc(-c3ccc(F)cc3)c2-c2ccncc2)CC1 [Example B-1400]
15,0.16 µM,O=C(NCCCc1[nH]nc(-c2ccc(F)cc2)c1-c1ccncc1)c1cccc(C(F)(F)F)c1 [Example B-1324]
16,1 µM,Cc1c(-c2ccncc2)c(-c2ccc(F)cc2)nn1CC(=O)NCCc1ccc([N+](=O)[O-])cc1 [Example B-2302]
17,1.48 µM,Cc1cccc(C(=O)N2CCC(c3[nH]nc(-c4ccc(F)cc4)c3-c3ccncc3)CC2)c1 [Example B-1395]

# Source: patent US6979686B1, “Substituted pyrazoles as p38 kinase inhibitors” (Pharmacia Corporation, priority 2001, dated 2005)
